# System: K422 lymphoma cells
# Assay: Saturation binding assay (Scatchard analysis) on K422 lymphoma cells
# Conditions: Scatchard analysis (FIG. 3), read-out: binding affinity
# From the text: Vos: “In vitro and in vivo evaluation of direct rhenium-188-labeled anti-CD52 monoclonal antibody alemtuzumab for radioimmunotherapy of B-cell chronic lymphocytic leukemia.” (Nuclear Medicine and Biology 35 (2008) 599-604)].
substance,measurement,value
Ac-225-DOTA-rituximab,Kd,30 nM
